Measured values reported in US20180193294A1, “Dehydroabietic acid (DHAA) derivatives for use as ion channel openers” (priority 2015, published 2018).
Entries after “also recorded” stand apart in the source; their conditions may differ.

Legend:
Type in all cases: cell-based
3R Shaker K channel = 3R Shaker K channel (Drosophila melanogaster, UniProt P08510, A359R/M356R); assay: physchem; settings: for compound-induced G(V) shift (mean±SEM) / G(V) shift: pH 7.4, Xenopus oocytes; for G(V) shift: Table 1; for Effects on K channel Mean ± SEM: Table 2, K channel expressed in Xenopus oocytes; for relative current amplitude: representative traces at voltage giving 10% of maximum conductance in control; for ΔG(V) of representative G(V) curves (single examples): pH 7.4, same cells as representative traces
Text: A 3R Shaker K channel is a modified Shaker K channel where residues 356 and 359 are mutated to arginines.
(§1) All animal experiments were approved by the local Animal Care and Use Committee and followed international guidelines. A modified Shaker H4 channel^30, with removed N-type inactivation (ShH4IR)^31, here called the wild type (WT) channel, was expressed in oocytes. In addition, a modified 3R Shaker K channel where two introduced positive charged arginines (M356R and A359R) in addition to one native arginine (R362) makes the channel more sensitive to DHA^16, was expressed in oocytes and in a CHO—K1 stable cell line.
(§2) African clawed frogs (Xenopus laevis) were anesthetized with 1.4 g/L ethyl 3-aminobenzoate methanesulfonate salt (tricaine). After an incision through the abdomen a batch of oocytes were removed. Clusters of oocytes were separated by incubation for ˜1 h in a Ca-free O—R2 solution (in mM: 82.5 NaCl, 2 KCl, 5 HEPES, and 1 MgCl2; pH adjusted to 7.4 by NaOH) containing Liberase Blendzyme. The oocytes were then incubated at 8° C. in a modified Barth's solution (MBS; in mM: 88 NaCl, 1 KCl, 2.4 NaHCO3, 15 HEPES, 0.33 Ca(NO3)2, 0.41 CaCl2, and 0.82 MgSO4; pH adjusted to 7.6 by NaOH) supplemented with penicillin (25 U/ml), streptomycin (25 μg/ml), and sodium pyruvate (2.5 mM) 2-24 hours before injection. Fifty nl of cRNA (50 pg) were injected into each oocyte using a Nanoject injector (Drummond Scientific, Broomall, Pa.). Injected oocytes were kept at 8° C. in MBS until one day before electrophysiological recordings, when they were incubated at 16° C. All chemicals were supplied from Sigma-Aldrich (Stockholm, Sweden) if not stated otherwise.
(§3) All manual electrophysiological recordings were performed at room temperature (20-23° C.), using a GeneClamp 500B amplifier (for oocytes) or a Axopatch 200B amplifier (for manual patch clamp of CHO—K1 cells and DRG neurons) and a Digidata 1440A digitizer and pClamp 10 software (all from Molecular Devices, Inc., Sunnyvale, Calif., USA). Compounds were dissolved to 100 mM in 99.5% EtOH and stored at −20° C. Compounds were diluted in extracellular solution to the desired test concentration.
(§4) The oocyte was placed in a bath surrounded by 1K extracellular solution that contained (in mM): 88 NaCl, 1 KCl, 15 HEPES, 0.4 CaCl2, and 0.8 MgCl2, pH adjusted to 7.4 by NaOH (reaching a sodium concentration of ˜100 mM). Control solution was added to the bath with a gravity driven perfusion system. Compound solution was added to the bath manually with a syringe. Two glass microelectrodes were inserted into the oocyte using micromanipulators. […] All channels were closed when the potential was clamped to −80 mV and this voltage was set as the holding potential. Currents were evoked from the holding potential of −80 mV by 100-ms long, 5-mV steps ranging from −80 up to +50 mV (WT) and +70 mV (3R).
(§5) Conductance GK(V) was calculated as GK(V)=[…], (Eq. 1) where IK is the average current from the steady-state phase at the end of each 100-ms pulse, V is the membrane voltage, and Vrev is the reversal potential for K^+, (set to −80 mV for the oocytes, and calculated to be −89 mV for the CHO—K1 cells).
(§6) G(V)=A/(1+exp((V1/2−V)/s))^n (Eq. 2) where A is amplitude of the curve, V is the absolute membrane voltage, V1/2 is the midpoint, s is the slope and n is an exponent set to 4^17. The compound-induced G(V) shift was determined at the 10% level of the maximum conductance in control solution^17. The compound-induced G(V) shift in CHO—K1 was quantified by subtracting the control V1/2 from the compound V1/2 when n was set to 1.
(§7) Data for concentration and pH dependent G(V) shifts (ΔV) in oocytes were fit with a dose-response equation ΔV=ΔVmax/(1+c1/2/c), (Eq. 3) where Δvmax is the maximal shift, c1/2 is half maximal effective concentration/pKa value and c is the concentration.

HL-1 cells = assay: Membrane potential and firing of spontaneously beating HL-1 cells, whole-cell current clamp; settings: 10 uM
Experimental: All conventional chemicals were purchased from Sigma-Aldrich (Stockholm, Sweden). The DHAA derivatives were diluted in ethanol in a 100 mM stock solution. The stock solutions were stored at −20 t for further use.
The cell culture was done according to a previous study (Claycomb et al., Proceedings of the National Academy of Sciences of the United States of America 1998; 95:2979-2984). In brief, cells were grown on gelating fibronectin coated T75 flasks. They were maintained in Claycomb Medium which was supplemented with 10% fetal bovine serum, 2 mM L-glutamine, 0.1 mM noradrenaline, and 100 U/ml, 100 μg/ml penicillin-streptomycin. Enzymatic dissociation with 0.05% trypsin-EDTA was done after full confluence. Isolated cells were plated on fibronectin-gelatin coated plastic coverslips and used for recording.
Whole-cell current-clamp recordings were done on confluent cells at 35±1° C., using an Axopatch 200B amplifier (Molecular Devices, Sunnyvale, Calif.). Patch pipettes were fabricated from borosilicate capillary glass on a vertical pipette puller and had resistances of 3-5 MO. Data were stored on a computer through Digidata 1440A interface (Molecular Devices), and was analyzed with pCLAMP software (version 10.1, Molecular Devices). The bath solution contained the following (in mM): 140 NaCl, 5.4 KCl, 1 MgCl2, 1.8 CaCl2, 10 HEPES, and 10 glucose (pH adjusted to 7.4 with NaOH). The micropipettes were filled with a solution containing (in mM): 130 K-gluconate, 9 KCl, 8 NaCl, 1 MgCl2, 10 EGTA, 10 HEPES, and 3 Na2ATP (pH adjusted to 7.3 with KOH).

WT Shaker K channel = WT Shaker K channel (Drosophila melanogaster, UniProt P08510, DEL6-46); assay: physchem; settings: 100 μM; for G(V) shift for WT: pH 7.4, Xenopus oocytes
Text: A Shaker K channel is a Kv channel from the fruit fly Drosophila melanogaster. It is homologous to the human Kv1-type ion channels.
as §1, §2, §3, §4, §5, §6, §7

Chain of 3R Shaker K channel (P08510 whole entry M356R/A359R): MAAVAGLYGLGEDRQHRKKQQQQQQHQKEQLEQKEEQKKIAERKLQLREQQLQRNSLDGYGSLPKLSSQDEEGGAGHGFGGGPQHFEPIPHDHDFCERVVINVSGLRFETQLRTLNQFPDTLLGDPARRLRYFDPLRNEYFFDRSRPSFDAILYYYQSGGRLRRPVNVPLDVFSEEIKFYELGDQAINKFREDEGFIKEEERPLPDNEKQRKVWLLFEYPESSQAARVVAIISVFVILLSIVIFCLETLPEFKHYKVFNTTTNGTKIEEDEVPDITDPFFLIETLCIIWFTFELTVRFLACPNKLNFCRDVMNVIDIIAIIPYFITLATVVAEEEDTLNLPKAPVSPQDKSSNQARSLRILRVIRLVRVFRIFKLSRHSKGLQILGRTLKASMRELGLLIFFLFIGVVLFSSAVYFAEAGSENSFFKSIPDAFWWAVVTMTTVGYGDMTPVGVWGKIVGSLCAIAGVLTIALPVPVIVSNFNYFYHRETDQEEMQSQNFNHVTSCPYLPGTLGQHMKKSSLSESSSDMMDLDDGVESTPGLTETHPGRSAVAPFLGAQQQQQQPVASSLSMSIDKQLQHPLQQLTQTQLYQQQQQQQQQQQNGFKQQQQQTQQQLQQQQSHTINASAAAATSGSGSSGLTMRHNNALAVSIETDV
Chain of WT Shaker K channel (P08510 other isoform, or with tags, fused parts or gaps DEL6-46): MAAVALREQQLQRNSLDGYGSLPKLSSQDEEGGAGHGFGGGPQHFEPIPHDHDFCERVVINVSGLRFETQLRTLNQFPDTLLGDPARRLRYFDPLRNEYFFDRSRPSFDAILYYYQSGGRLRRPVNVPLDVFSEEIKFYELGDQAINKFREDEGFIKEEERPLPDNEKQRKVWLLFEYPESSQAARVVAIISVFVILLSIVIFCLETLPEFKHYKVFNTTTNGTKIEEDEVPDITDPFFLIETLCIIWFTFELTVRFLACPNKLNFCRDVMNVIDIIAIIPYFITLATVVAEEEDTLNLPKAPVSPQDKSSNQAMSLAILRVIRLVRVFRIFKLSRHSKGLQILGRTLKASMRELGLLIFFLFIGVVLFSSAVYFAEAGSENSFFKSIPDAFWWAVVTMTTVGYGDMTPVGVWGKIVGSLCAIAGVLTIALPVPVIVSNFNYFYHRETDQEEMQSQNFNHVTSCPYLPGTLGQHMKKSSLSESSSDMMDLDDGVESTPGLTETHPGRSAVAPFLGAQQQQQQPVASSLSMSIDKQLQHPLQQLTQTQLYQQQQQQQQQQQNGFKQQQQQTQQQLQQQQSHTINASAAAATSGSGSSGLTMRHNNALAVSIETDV

With `C=CCO/N=C1\CC2[C@](C)(C(=O)O)CCC[C@]2(C)c2ccc(C(C)C)cc21` (stereo partly shown) [Compound K8] the “compound-induced G(V) shift (mean±SEM)” value (3R Shaker K channel; 100 μM) was −17.8±1.9 mV, the “effect on G(V) shift / current compared with DHAA” value (3R Shaker K channel; C7-modified DHAA, 100 μM, pH 7.4) was “significantly increased the effect” and the “G(V) shift” value (3R Shaker K channel; 100 μM) was −17.8 mV. For the same compound, the “Effects on K channel Mean ± SEM” value (3R Shaker K channel) was −17.8 ± 1.9 mV, the relative current amplitude (3R Shaker K channel; 100 μM, pH 7.4) was 7.6 times and the “Effects on HL-1 cells Mean (membrane potential)” value (from here on “Effects on HL-1 cells Mean”) (HL-1 cells) was −3.6 mV.
For `CC(C)c1ccc2c(c1)CC[C@H]1[C@](C)(C(=O)O)CCC[C@]21C` [DHAA, dehydroabietic acid], the Kd (3R Shaker K channel) was 89 µM, the pKa (3R Shaker K channel; Drosophila melanogaster, from pH dependence of G(V) shift, 100 μM) was 7.3 and the pKa (WT Shaker K channel; Drosophila melanogaster, from pH dependence of G(V) shift) was 7.2.
`CC/C=C\C/C=C\C/C=C\C/C=C\C/C=C\C/C=C\CCC(=O)O` [DHA] was tested, and the “G(V) shift for WT” value (WT Shaker K channel) was −6.0 mV.
For `C=C[C@@]1(C)CC[C@H]2C(=CC[C@@H]3[C@]2(C)CCC[C@@]3(C)C(=O)O)C1` [Iso-PiMA, isopimaric acid, reference compound], the “compound-induced G(V) shift (mean±SEM)” value (3R Shaker K channel; 100 μM) was −15.9±1.8 mV, the “ΔG(V) of representative G(V) curves (single examples)” value (“ΔG(V) of representative G(V) curves” for short) (3R Shaker K channel; 100 μM) was −20.0 mV and the relative current amplitude (3R Shaker K channel; 100 μM, pH 7.4) was 5.7 times. For the same compound, the “G(V) shift for WT” value (WT Shaker K channel) was “much smaller effects on WT compared to the 3R Shaker K channel”.
With `C=C[C@@]1(C)C=C2CC[C@@H]3[C@](C)(CCC[C@@]3(C)C(=O)O)[C@H]2CC1` [PiMA, pimaric acid, reference compound] the “compound-induced G(V) shift (mean±SEM)” value (3R Shaker K channel; 100 μM) was −10.4±0.8 mV, the “ΔG(V) of representative G(V) curves” value (3R Shaker K channel; 100 μM) was −10.8 mV and the relative current amplitude (3R Shaker K channel; 100 μM, pH 7.4) was 2.4 times. The “G(V) shift for WT” value (WT Shaker K channel) was “much smaller effects on WT compared to the 3R Shaker K channel”.
`C[C@]1(C(=O)O)CCC[C@]2(C)c3cc(O)ccc3CC[C@@H]12` [PoCA, podocarpic acid, reference compound] was tested, and the “ΔG(V) of representative G(V) curves” value (3R Shaker K channel; 100 μM) was “+0.1 mV”, the relative current amplitude (3R Shaker K channel; 100 μM, pH 7.4) was 1.0 times and the “G(V) shift for WT” value (WT Shaker K channel) was “not significantly different from the 3R Shaker K channel”.
For `CC(C)c1ccc2c(c1Br)CCC1[C@](C)(C(=O)O)CCC[C@]21C` (stereo partly drawn) [Wu26, (1R,4aS)-8-bromo-7-isopropyl-1,4a-dimethyl-1,2,3,4,4a,9,10,10a-octahydrophenanthrene-1-carboxylic acid], the “G(V) shift” value (3R Shaker K channel; 100 μM) was −21.8 mV, the “Effects on K channel Mean ± SEM” value (3R Shaker K channel) was −21.8 ± 0.8 mV and the “Effects on HL-1 cells Mean” value (HL-1 cells) was −4.7 mV.
With `CO/N=C1\CC2[C@](C)(C(=O)O)CCC[C@]2(C)c2cc(Cl)c(C(C)C)cc21` (stereo partly drawn) [Wu69, (1R,4aS,E)-6-chloro-7-isopropyl-9-methoxyimino-1,4a-dimethyl-1,2,3,4,4a,9,10,10a-octahydrophenanthrene-1-carboxylic acid] the “compound-induced G(V) shift (mean±SEM)” value (3R Shaker K channel; 100 μM) was “one of the most potent substances on the Shaker K 3R channel”, the “G(V) shift” value (3R Shaker K channel; 100 μM) was −28.1 mV and the “Effects on K channel Mean ± SEM” value (3R Shaker K channel) was −28.1 ± 1.7 mV. The “Effects on HL-1 cells Mean” value (HL-1 cells) was −9.3 mV, the “effect on firing frequency of HL-1 cells” value (HL-1 cells) was “reduced the frequency; also recorded: frequency is reduced” and the “effect on membrane potential of HL-1 cells” value (HL-1 cells) was “hyperpolarized the membrane potential; also recorded: interspike membrane potential is made more negative; also recorded: most potent substance on the HL-1 cells”.
`C=CCO/N=C1\CC2[C@](C)(C(=O)O)CCC[C@]2(C)c2cc(C=C)c(C(C)C)cc21` (stereo partly drawn) [Wu120, (1R,4aS,E)-9-((allyloxy)imino)-7-isopropyl-1,4a-dimethyl-6-vinyl-1,2,3,4,4a,9,10,10a-octahydrophenanthrene-1-carboxylic acid] was tested, and the “G(V) shift” value (3R Shaker K channel; 100 μM) was −26.1 mV.
With `CC(C)c1cc2c(cc1C1CC1)[C@@]1(C)CCC[C@@](C)(C(=O)O)C1CC2=O` (stereo partly drawn) [Wu121, (1R,4aS)-6-cyclopropyl-7-isopropyl-1,4a-dimethyl-9-oxo-1,2,3,4,4a,9,10,10a-octahydrophenanthrene-1-carboxylic acid] the “G(V) shift” value (3R Shaker K channel; 100 μM) was −6.7 mV.
In the case of `CO/N=C1\CC2[C@](C)(C(=O)O)CCC[C@]2(C)c2cc(C3CC3)c(C(C)C)cc21` (stereo partly drawn) [Wu122, (1R,4aS,E)-6-cyclopropyl-7-isopropyl-9-(methoxyimino)-1,4a-dimethyl-1,2,3,4,4a,9,10,10a-octahydrophenanthrene-1-carboxylic acid], the “G(V) shift” value (3R Shaker K channel; 100 μM) is reported as −32.3 mV.
With `C=CCO/N=C1\CC2[C@](C)(C(=O)O)CCC[C@]2(C)c2cc(C3CC3)c(C(C)C)cc21` (stereo partly drawn) [Wu123, (1R,4aS,E)-9-((allyloxy)imino)-6-cyclopropyl-7-isopropyl-1,4a-dimethyl-1,2,3,4,4a,9,10,10a-octahydrophenanthrene-1-carboxylic acid] the “G(V) shift” value (3R Shaker K channel; 100 μM) was −26.3 mV.
`CC(C)c1ccc2c(c1-c1ccccc1)CC[C@H]1[C@](C)(C(=O)O)CCC[C@]21C` [Wu124] was tested, and the “G(V) shift” value (3R Shaker K channel; 100 μM) was −0.4 mV.
In the case of `CC(C)c1ccc2c(c1C1CC1)CC[C@H]1[C@](C)(C(=O)O)CCC[C@]21C` [Wu127], the “G(V) shift” value (3R Shaker K channel; 100 μM) is reported as −9.6 mV.
With `C[C@]1(C(=O)O)CCC[C@]2(C)c3ccccc3CCC12` (stereo partly drawn) [Wu129, (1S,4aS)-1,4a-dimethyl-1,2,3,4,4a,9,10,10a-octahydrophenanthrene-1-carboxylic acid] the “G(V) shift” value (3R Shaker K channel; 100 μM) was −5.1 mV.
For `C[C@@]1(C(=O)O)CCC[C@]2(C)c3c(Cl)c(Cl)c(Cl)c(Cl)c3CCC12` (stereo partly drawn) [Wu133, (1R,4aS)-5,6,7,8-tetrachloro-1,4a-dimethyl-1,2,3,4,4a,9,10,10a-octahydrophenanthrene-1-carboxylic acid], the “G(V) shift” value (3R Shaker K channel; 100 μM) was −25.6 mV.
For `C[C@]1(C(=O)O)CCC[C@]2(C)c3cc(Cl)ccc3CCC12` (stereo partly drawn) [Wu135, (1S,4aS)-6-chloro-1,4a-dimethyl-1,2,3,4,4a,9,10,10a-octahydrophenanthrene-1-carboxylic acid], the “G(V) shift” value (3R Shaker K channel; 100 μM) was −12.0 mV.
`C[C@]1(C(=O)O)CCC[C@]2(C)c3ccc(Cl)cc3CCC12` (stereo partly drawn) [Wu136, (1S,4aS)-7-chloro-1,4a-dimethyl-1,2,3,4,4a,9,10,10a-octahydrophenanthrene-1-carboxylic acid] was tested, and the “G(V) shift” value (3R Shaker K channel; 100 μM) was −17.8 mV.
